For 49 compounds, pest or weed control results are on record in US20200288710A1, “SUBSTITUTED SULPHONAMIDES FOR CONTROLLING ANIMAL PESTS” (BAYER CROPSCIENCE AKTIENGESELLSCHAFT, priority 2016, published 2020).

Holding throughout (assay type): in vivo
The subject of one experiment is Meloidogyne incognita. Kind of experiment: Meloidogyne incognita test. As to conditions: 336 h, lettuce, after 14 days, read-out: nematicidal efficacy (formation of galls). The procedure:
Meloidogyne incognita Test Solvent: 125.0 parts by weight of acetone To produce a suitable active compound preparation, 1 part by weight of active compound is mixed with the stated amount of solvent and the concentrate is diluted with water to the desired concentration. Vessels are filled with sand, active compound solution, an egg/larvae suspension of the southern rootknot nematode (Meloidogyne incognita) and lettuce seeds. The lettuce seeds germinate and the plants develop. The galls develop on the roots. After 14 days, the nematicidal efficacy in % is determined by the formation of galls. 100% means that no galls were found; 0% means that the number of galls on the treated plants corresponds to the untreated control.

The subject of experiment [1] is Myzus persicae. Nature of the experiment: Myzus persicae spray test (Chinese cabbage leaf discs). The note with it: foliar, 120 h, 500 g/ha, after 5-6 days, read-out: efficacy. An outline of the steps: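 Formulated compound in acetone/dimethylformamide, diluted in water with 1000 ppm emulsifier, was sprayed onto Brassica pekinensis leaf discs carrying mixed-stage Myzus persicae. Percent mortality was read 5-6 days later (0% = no aphids killed, 100% = all killed).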

Experiment [2] deals with Myzus persicae. Nature of the experiment: Myzus persicae oral test. As to conditions: 120 h, 20 ppm, oral uptake, after 5 days, read-out: efficacy. An outline of the steps:
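Aphids of mixed ages imbibe, through parafilm, compound solution (acetone stock, water-diluted) combined with sugar-supplemented IPL41 medium to 200 μl. Efficacy read at day 5 as percent killed, 0% meaning no deaths.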

For the compound `CC(C)CS(=O)(=O)NC(=O)c1cn(C)c(-c2c(F)cccc2F)n1` [Example 142], the pest or weed control at 20 ppm in the experiment on Meloidogyne incognita was 90%. Moreover, in the experiment with Myzus persicae [1], the pest or weed control at 500 g/ha is 100%.
Consider `Cn1cc(C(=O)NS(=O)(=O)c2ccc(Cl)cc2)nc1-c1c(F)cc(F)cc1F` [Example 9], for which the pest or weed control at 20 ppm with Meloidogyne incognita stood at 100%. Also, the pest or weed control at 500 g/ha in the experiment on Myzus persicae [1] is 90%.
As for `Cn1cc(C(=O)NS(=O)(=O)c2cccc(F)c2Cl)nc1-c1c(F)cccc1F` [Example 321], in the experiment with Meloidogyne incognita, the pest or weed control at 20 ppm worked out at 90%. Further, in the experiment with Myzus persicae [1], the pest or weed control at 500 g/ha is 100%.
Regarding `Cn1cc(C(=O)NS(=O)(=O)Cc2ccc(Cl)cc2)nc1-c1ccccc1Cl` [Example 63], the pest or weed control at 20 ppm in the experiment on Meloidogyne incognita and in the experiment with Myzus persicae [2] was 100% each time.
Regarding `COc1ccc(S(=O)(=O)NC(=O)c2cn(C)c(-c3c(F)cccc3F)n2)cc1` [Example 47], in the experiment on Meloidogyne incognita, the pest or weed control at 20 ppm is 100%. Moreover, the pest or weed control at 500 g/ha in the experiment on Myzus persicae [1] amounted to 90%.
Consider `CCn1c(C(=O)NS(=O)(=O)c2ccccc2Cl)nc(-c2c(F)cccc2F)c1C` [Example 414], for which the pest or weed control at 20 ppm in the experiment on Meloidogyne incognita and in the experiment with Myzus persicae [2] was 100% in each case.
In the case of `Cc1ccccc1S(=O)(=O)NC(=O)c1cc(-c2ncccc2Cl)n(-c2ccccc2Cl)n1` [Example 265], the pest or weed control at 20 ppm with Meloidogyne incognita and in the experiment with Myzus persicae [2] was 100% each time.
For `CCc1[nH]c(-c2ccc(F)c(F)c2)nc1C(=O)NS(=O)(=O)c1ccccc1C` [Example 207], the pest or weed control at 20 ppm in the experiment on Meloidogyne incognita is 90%. The pest or weed control at 500 g/ha with Myzus persicae [1] came out at 90%.
Take `Cc1ccccc1S(=O)(=O)NC(=O)c1cn(C)c(-c2cccc3c2OC(F)(F)O3)n1` [Example 542]: the pest or weed control at 20 ppm in the experiment with Meloidogyne incognita stood at 100%. Further, the pest or weed control at 500 g/ha with Myzus persicae [1] turned out to be 90%.
`CCc1[nH]c(-c2ccc(Cl)cc2)nc1C(=O)NS(=O)(=O)c1ccccc1C` [Example 590]: the values for the pest or weed control at 20 ppm with Meloidogyne incognita and with Myzus persicae [2] were 90% and 100%, respectively.
Regarding `CCc1c(C(=O)NS(=O)(=O)c2ccccc2Cl)nc(-c2c(F)cccc2F)n1C` [Example 197], the pest or weed control at 20 ppm in the experiment with Meloidogyne incognita turned out to be 100%. Further, the pest or weed control at 500 g/ha in the experiment on Myzus persicae [1] was determined as 90%.
Regarding `Cc1[nH]c(-c2cccc(Cl)c2)nc1C(=O)NS(=O)(=O)c1ccccc1Cl` [Example 233], the pest or weed control at 20 ppm in the experiment with Meloidogyne incognita is 90%; in the experiment on Myzus persicae [2], 100%.
With `CCc1cccc(OC)c1S(=O)(=O)NC(=O)c1cn(C)c(-c2c(F)cccc2F)n1` [Example 200], the pest or weed control at 20 ppm in the experiment with Meloidogyne incognita stood at 100%. For the same compound, in the experiment on Myzus persicae [1], the pest or weed control at 500 g/ha worked out at 100%.
For the compound `Cc1ccccc1S(=O)(=O)NC(=O)c1cn(C)c(-c2cccc(C(C)C)c2)n1` [Example 331], the pest or weed control at 20 ppm with Meloidogyne incognita amounted to 90%; with Myzus persicae [2], 100%.
The corresponding values for `CCn1c(C(=O)NS(=O)(=O)c2ccccc2OC)nc(-c2c(F)cccc2F)c1C` [Example 416] are 90% and 90%.
For the compound `Cc1cccc(C)c1-c1nc(C(=O)NS(=O)(=O)c2ccccc2Cl)cn1C` [Example 477], the pest or weed control at 20 ppm with Meloidogyne incognita and in the experiment with Myzus persicae [2] was 90% throughout.
In the case of `CCOc1c(Cl)cccc1S(=O)(=O)NC(=O)c1cn(C)c(-c2c(F)cccc2F)n1` [Example 314], the results for the pest or weed control at 20 ppm with Meloidogyne incognita and with Myzus persicae [2] were 90% and 100%, respectively.
For `CC(C)CS(=O)(=O)NC(=O)c1cn(C)c(-c2c(F)cccc2Cl)n1` [Example 325], the pest or weed control at 20 ppm in the experiment on Meloidogyne incognita came out at 90%; in the experiment on Myzus persicae [2] it was 100%.
Consider `COc1cc(C(=O)NS(=O)(=O)c2ccccc2C)nn1-c1ccccc1Cl` [Example 276], for which the pest or weed control at 20 ppm in the experiment with Meloidogyne incognita and in the experiment with Myzus persicae [2] was 100% throughout.
For the compound `Cc1ccccc1S(=O)(=O)NC(=O)c1cn(C)c(-c2ccccc2[N+](=O)[O-])n1` [Example 525], the pest or weed control at 20 ppm with Meloidogyne incognita and in the experiment with Myzus persicae [2] was 100% each time.
With `Cc1[nH]c(-c2ccccc2Cl)nc1C(=O)NS(=O)(=O)C(C)C` [Example 625], the figures for the pest or weed control at 20 ppm in the experiment with Meloidogyne incognita and in the experiment with Myzus persicae [2] were 100% and 90%, respectively.
Taken in the same sequence, the figures for `COc1ccc(Cl)c(S(=O)(=O)NC(=O)c2nc(-c3ccccc3Cl)[nH]c2C)c1` [Example 239] were 90% and 100%.
For the compound `Cn1cc(C(=O)NS(=O)(=O)c2ccccc2Cl)nc1-c1ccccc1-c1ccccc1` [Example 532], the values for the pest or weed control at 20 ppm in the experiment with Meloidogyne incognita and in the experiment with Myzus persicae [2] were 90% and 100%, respectively.
With `CCn1cc(C(=O)NS(=O)(=O)CC(F)(F)F)nc1-c1ccccc1Cl` [Example 77], the pest or weed control at 20 ppm with Meloidogyne incognita and with Myzus persicae [2] was 90% each time.
Turning to `Cn1cc(C(=O)NS(=O)(=O)c2ccc(Cl)c(Cl)c2)nc1-c1c(F)cccc1F` [Example 187], the pest or weed control at 20 ppm was 90% in the experiment on Meloidogyne incognita and 100% in the experiment with Myzus persicae [2].
With `COCCS(=O)(=O)NC(=O)c1cn(C)c(-c2c(F)cccc2F)n1` [Example 141], the pest or weed control at 20 ppm with Meloidogyne incognita and in the experiment with Myzus persicae [2] was 90% in each case.
Regarding `Cc1[nH]c(C(=O)NS(=O)(=O)C(C)C)nc1-c1ccccc1Cl` [Example 202], the pest or weed control at 20 ppm is 90% in the experiment on Meloidogyne incognita and 100% in the experiment with Myzus persicae [2].
`CCc1ccccc1-c1nc(C(=O)NS(=O)(=O)c2ccccc2Cl)cn1C` [Example 496]: the pest or weed control at 20 ppm is 100% in the experiment with Meloidogyne incognita and 90% in the experiment with Myzus persicae [2].
For `CC(C)c1ccccc1-c1nc(C(=O)NS(=O)(=O)c2ccccc2Cl)cn1C` [Example 209], the pest or weed control at 20 ppm with Meloidogyne incognita and in the experiment with Myzus persicae [2] was 90% throughout.
As for `Cc1[nH]c(-c2c(F)cccc2F)nc1C(=O)NS(=O)(=O)c1ccccc1Cl` [Example 192], the pest or weed control at 20 ppm with Meloidogyne incognita amounted to 90%; with Myzus persicae [2] it was 100%.
Regarding `Cn1cc(C(=O)NS(=O)(=O)c2ccc(Br)s2)nc1-c1c(F)cccc1F` [Example 353], the pest or weed control at 20 ppm in the experiment on Meloidogyne incognita and with Myzus persicae [2] was 90% throughout.
For the compound `Cn1cc(C(=O)NS(=O)(=O)c2ccccc2Cl)nc1-c1cc(Cl)ccc1Cl` [Example 511], the pest or weed control at 20 ppm in the experiment on Meloidogyne incognita and with Myzus persicae [2] was 100% throughout.
Regarding `Cn1cc(C(=O)NS(=O)(=O)Cc2cccc(Cl)c2)nc1-c1ccccc1Cl` [Example 61], the pest or weed control at 20 ppm with Meloidogyne incognita and in the experiment on Myzus persicae [2] was 100% in each case.
On to `CCc1ccccc1-c1nc(C(=O)NS(=O)(=O)c2ccccc2OC)cn1C` [Example 498], for which the pest or weed control at 20 ppm with Meloidogyne incognita is 90%; in the experiment with Myzus persicae [2], 100%.
As for `Cc1ccccc1-c1nc(C(=O)NS(=O)(=O)c2ccc(Cl)cc2)cn1C` [Example 49], the pest or weed control at 20 ppm in the experiment with Meloidogyne incognita and with Myzus persicae [2] was 100% each time.
On to `CCc1[nH]c(-c2cccc(Br)c2)nc1C(=O)NS(=O)(=O)c1ccccc1C` [Example 134], for which the pest or weed control at 20 ppm in the experiment on Meloidogyne incognita is 90%; in the experiment with Myzus persicae [2], 100%.
The corresponding values for `O=C(NS(=O)(=O)C1CC1)c1cc(-c2ncccc2Cl)n(-c2ccccc2Cl)n1` [Example 456] are 100% and 100%.
As to `COc1ccc(Cl)c(S(=O)(=O)NC(=O)c2nc(-c3ccc(Cl)cc3)[nH]c2C)c1` [Example 618], the pest or weed control at 20 ppm in the experiment with Meloidogyne incognita and with Myzus persicae [2] was 100% each time.
Turning to `COc1ccc(Cl)c(S(=O)(=O)NC(=O)c2c[nH]c(-c3c(F)cccc3F)n2)c1` [Example 411], the pest or weed control at 20 ppm was 90% in the experiment with Meloidogyne incognita and 100% with Myzus persicae [2].
The corresponding values for `CC(C)Sc1cccc(Cl)c1S(=O)(=O)NC(=O)c1cn(C)c(-c2c(F)cccc2F)n1` [Example 386] are 90% and 100%.
With `CC(C)c1cccc(-c2nc(C(=O)NS(=O)(=O)c3ccccc3Br)cn2C)c1` [Example 330], the pest or weed control at 20 ppm with Meloidogyne incognita and with Myzus persicae [2] was 90% throughout.
With `CCn1cc(C(=O)NS(=O)(=O)c2cccc(Cl)c2)nc1-c1ccccc1Cl` [Example 40], the pest or weed control at 20 ppm in the experiment with Meloidogyne incognita and in the experiment with Myzus persicae [2] was 100% in each case.
With `CC(C)Cc1ccc(S(=O)(=O)NC(=O)c2cn(C)c(-c3ccccc3Cl)n2)cc1` [Example 288], in the experiment with Meloidogyne incognita, the pest or weed control at 20 ppm amounted to 90%.
On to `CCc1[nH]c(-c2ccccc2Cl)nc1C(=O)NS(=O)(=O)c1ccccc1Cl` [Example 243], for which the pest or weed control at 20 ppm in the experiment on Meloidogyne incognita worked out at 90%.
As for `Cc1[nH]c(-c2ccc(Cl)c(Cl)c2)nc1C(=O)NS(=O)(=O)c1ccccc1Cl` [Example 614], the pest or weed control at 20 ppm in the experiment with Meloidogyne incognita amounted to 100%.
Regarding `CCn1cc(C(=O)NS(=O)(=O)c2ccccc2C(F)(F)F)nc1-c1ccccc1Cl` [Example 21], the pest or weed control at 20 ppm in the experiment on Meloidogyne incognita turned out to be 90%; with Myzus persicae [2], 100%.
Take `Cn1cc(C(=O)NS(=O)(=O)c2ccccc2Cl)nc1-c1ccc(Cl)c(Cl)c1` [Example 535]: the pest or weed control at 20 ppm in the experiment on Meloidogyne incognita worked out at 100%.
As to `COc1ccc(C(C)(C)C)cc1S(=O)(=O)NC(=O)c1cn(C)c(-c2c(F)cccc2F)n1` [Example 392], the pest or weed control at 20 ppm in the experiment with Meloidogyne incognita was 90%.
On to `CCc1c(C(=O)NS(=O)(=O)c2ccccc2C)nc(-c2c(F)cccc2F)n1C` [Example 199], for which the pest or weed control at 20 ppm in the experiment with Meloidogyne incognita turned out to be 90%; with Myzus persicae [2] it was 100%.
